The values below are quoted from earlier work in PMC6722509, “Design and In Vivo Pharmacokinetic Evaluation of Triamcinolone Acetonide Microcrystals-Loaded PLGA Microsphere for Increased Drug Retention in Knees after Intra-Articular Injection” (Pharmaceutics, 2019).

Molecules are shown by their SMILES. Bounds are passed on as bounds.

For data set [1] the following is noted: 0.25 mg per knee, rats.

`CC1(C)O[C@@H]2C[C@H]3[C@@H]4CCC5=CC(=O)C=C[C@]5(C)[C@@]4(F)[C@@H](O)C[C@]3(C)[C@]2(C(=O)CO)O1` [TA, triamcinolone acetonide]: the “Solubility in ACN” value was below 1000 µg/mL. Besides, in data set [1], the “Tolerability of IA dose” value is on record as “well tolerated”.
